ChEMBL document CHEMBL1201862, “PubChem BioAssay data set” (2004)
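Step 1: Grow cells in 96-well plates. Step 2: Expose to compound for 48 hours at 5 concentrations. Step 3: Interpolate endpoints linearly; if unreached, use highest concentration. GI50 marks 50% less growth.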 Activity calls are given as the source filed them. Rule as the data show it: active = GI50 up to about 1.1 µM and inactive = higher.

Key:
Test in all cases: growth of human tumour cells (NCI), 48 h
A498 = tested on: A498
BT-549 = tested on: BT-549
DU-145 = tested on: DU-145
EKVX = tested on: EKVX
HCC 2998 = tested on: HCC 2998
HCT-116 = tested on: HCT-116
HOP-62 = tested on: HOP-62
Hs-578T = tested on: Hs-578T
K562 = tested on: K562
MCF7 = tested on: MCF7
Malme-3M = tested on: Malme-3M
NCI-H522 = tested on: NCI-H522
SF-539 = tested on: SF-539
SK-OV-3 = tested on: SK-OV-3
U-251 = tested on: U-251
UACC-257 = tested on: UACC-257
UACC-62 = tested on: UACC-62
HCT-15 = tested on: HCT-15
HL-60 = tested on: HL-60
SR = tested on: SR

Compound | GI50 (A498) | GI50 (BT-549) | GI50 (DU-145) | GI50 (EKVX) | GI50 (HCC 2998) | GI50 (HCT-116) | GI50 (HOP-62) | GI50 (Hs-578T) | GI50 (K562) | GI50 (MCF7) | GI50 (Malme-3M) | GI50 (NCI-H522) | GI50 (SF-539) | GI50 (SK-OV-3) | GI50 (U-251) | GI50 (UACC-257) | GI50 (UACC-62) | GI50 (HCT-15) [µM] | GI50 (HL-60) | GI50 (SR)
Cc1n[nH]c(=O)n1N1C(=O)CCCC1=O | > 100 µM (inactive) | > 100 µM (inactive) | > 100 µM (inactive) | > 100 µM (inactive) | > 100 µM (inactive) | > 100 µM (inactive) | > 100 µM (inactive) | > 100 µM (inactive) | 63.4 µM (inactive) | > 100 µM (inactive) | > 100 µM (inactive) | > 100 µM (inactive) | > 100 µM (inactive) | > 100 µM (inactive) | > 100 µM (inactive) | > 100 µM (inactive) | > 100 µM (inactive) |  |  | 
CSc1nc(O)c(C#N)c(-c2ccccc2)n1 | > 100 µM (inactive) | > 100 µM (inactive) | > 100 µM (inactive) | > 100 µM (inactive) | > 100 µM (inactive) | > 100 µM (inactive) | > 100 µM (inactive) | > 100 µM (inactive) | > 100 µM (inactive) | > 100 µM (inactive) |  | 53.1 µM (inactive) | > 100 µM (inactive) | > 100 µM (inactive) | > 100 µM (inactive) | > 100 µM (inactive) | > 100 µM (inactive) | > 100 | > 100 µM (inactive) | 
CN(C(=O)Cc1ccccc1)n1cnn(CC(=O)OC(C)(C)C)c1=S | > 10 µM (inactive) | > 10 µM (inactive) | > 10 µM (inactive) | > 10 µM (inactive) | > 10 µM (inactive) | > 10 µM (inactive) | > 10 µM (inactive) | > 10 µM (inactive) | > 10 µM (inactive) | > 10 µM (inactive) | > 10 µM (inactive) | > 10 µM (inactive) | > 10 µM (inactive) | > 10 µM (inactive) | > 10 µM (inactive) | > 10 µM (inactive) | > 10 µM (inactive) | > 10 |  | > 10 µM (inactive)
O=C(NCC1Nc2ccncc2S(=O)(=O)N1)c1ccc(Br)cc1 (configuration not stated) | > 100 µM (inactive) | 69.7 µM (inactive) | 77.6 µM (inactive) | > 100 µM (inactive) | 51.9 µM (inactive) | 43.9 µM (inactive) | > 100 µM (inactive) | 32.2 µM (inactive) | 33.2 µM (inactive) | 37 µM (inactive) | 28.8 µM (inactive) | 28.2 µM (inactive) |  | > 100 µM (inactive) | 30.4 µM (inactive) | > 100 µM (inactive) | 58.7 µM (inactive) | 42.5 | 30.1 µM (inactive) | 
NS(=O)(=O)c1cc2c(cc1Cl)NC(Cc1ccccc1)NS2(=O)=O (configuration not stated) [BENZYLHYDROCHLOROTHIAZIDE] | > 100 µM (inactive) | > 100 µM (inactive) | > 100 µM (inactive) | > 100 µM (inactive) | > 100 µM (inactive) | 46.1 µM (inactive) | > 100 µM (inactive) | > 100 µM (inactive) | 63.1 µM (inactive) | 60.4 µM (inactive) | > 100 µM (inactive) | > 100 µM (inactive) | 45.1 µM (inactive) | > 100 µM (inactive) | > 100 µM (inactive) | > 100 µM (inactive) | > 100 µM (inactive) | > 100 |  | 61 µM (inactive)
CC(C)Oc1c(C2(c3ccccc3O)SCCCS2)c(=O)c1=O | 62.8 µM (inactive) | 42.5 µM (inactive) | 93.3 µM (inactive) | 55.5 µM (inactive) |  | > 100 µM (inactive) | > 100 µM (inactive) | > 100 µM (inactive) |  | > 100 µM (inactive) |  | 23.6 µM (inactive) | > 100 µM (inactive) | > 100 µM (inactive) | > 100 µM (inactive) | > 100 µM (inactive) | 98.6 µM (inactive) | > 100 | 54.2 µM (inactive) | 
c1cncc(CNc2ncn[nH]2)c1 | > 100 µM (inactive) | > 100 µM (inactive) | > 100 µM (inactive) | > 100 µM (inactive) |  | > 100 µM (inactive) | > 100 µM (inactive) | > 100 µM (inactive) | > 100 µM (inactive) | > 100 µM (inactive) | > 100 µM (inactive) | > 100 µM (inactive) | > 100 µM (inactive) | > 100 µM (inactive) | > 100 µM (inactive) | > 100 µM (inactive) | > 100 µM (inactive) | > 100 |  | > 100 µM (inactive)
CC1(C)Oc2ccc3c(=O)c(-c4ccccc4)c(-c4ccccc4)oc3c2C1C(=O)O (configuration not stated) | > 100 µM (inactive) | > 100 µM (inactive) | > 100 µM (inactive) | > 100 µM (inactive) | > 100 µM (inactive) | > 100 µM (inactive) | > 100 µM (inactive) | 64.9 µM (inactive) | 63 µM (inactive) | > 100 µM (inactive) | > 100 µM (inactive) | > 100 µM (inactive) | > 100 µM (inactive) | > 100 µM (inactive) | > 100 µM (inactive) | > 100 µM (inactive) | > 100 µM (inactive) | 33.3 |  | 
N=C(Cc1ccccc1)NCC(=O)O | > 100 µM (inactive) | > 100 µM (inactive) | > 100 µM (inactive) | > 100 µM (inactive) | > 100 µM (inactive) | > 100 µM (inactive) | > 100 µM (inactive) | > 100 µM (inactive) | > 100 µM (inactive) | > 100 µM (inactive) | > 100 µM (inactive) | > 100 µM (inactive) |  | > 100 µM (inactive) | > 100 µM (inactive) | > 100 µM (inactive) | > 100 µM (inactive) | > 100 | > 100 µM (inactive) | 
Cn1c(-c2cccs2)cc(-c2ccsc2)c1-c1ccsc1 | > 100 µM (inactive) | > 100 µM (inactive) | > 100 µM (inactive) | > 100 µM (inactive) | > 100 µM (inactive) | 64.1 µM (inactive) | > 100 µM (inactive) | > 100 µM (inactive) | > 100 µM (inactive) | 6.59 µM (inactive) | > 100 µM (inactive) | > 100 µM (inactive) | > 100 µM (inactive) | > 100 µM (inactive) | > 100 µM (inactive) | > 100 µM (inactive) | > 100 µM (inactive) | > 100 |  | > 100 µM (inactive)
O=C(O)C1CCCCC1c1c2ccc(=O)cc-2oc2cc(O)ccc12 (configuration not stated) | 37.8 µM (inactive) | 47.6 µM (inactive) | 26.5 µM (inactive) | 33.5 µM (inactive) | 31 µM (inactive) | 31 µM (inactive) |  | 34.8 µM (inactive) | 14.1 µM (inactive) | 27.6 µM (inactive) | 29.7 µM (inactive) | 17.7 µM (inactive) | 18 µM (inactive) | 32.1 µM (inactive) | 30.5 µM (inactive) | 65.3 µM (inactive) | 25.9 µM (inactive) | 34.6 | 54.6 µM (inactive) | 
CCCCCCC(C)CC(CCCCCC)NCCOC(=O)c1ccc([N+](=O)[O-])cc1 (configuration not stated) | 18.4 µM (inactive) | 15.4 µM (inactive) | 12.2 µM (inactive) | 8.71 µM (inactive) | 2.02 µM (inactive) | 8.18 µM (inactive) | 14.3 µM (inactive) | 17.2 µM (inactive) |  | 7.16 µM (inactive) | 11.1 µM (inactive) | 12.1 µM (inactive) | 13 µM (inactive) | 14.9 µM (inactive) | 11.1 µM (inactive) | 4.98 µM (inactive) | 13 µM (inactive) | 10.1 |  | 
COc1ccc(Oc2cccc(/C=C3/C(=O)Nc4ccccc43)c2)cc1 | 12.2 µM (inactive) | 14.8 µM (inactive) | 14.1 µM (inactive) | 10.9 µM (inactive) | 9.31 µM (inactive) | 3.6 µM (inactive) | 14.8 µM (inactive) | 15.4 µM (inactive) | 1.57 µM (inactive) | 3.41 µM (inactive) | 11.2 µM (inactive) | 6.61 µM (inactive) | 18.9 µM (inactive) | 13.8 µM (inactive) | 1.91 µM (inactive) | 5.79 µM (inactive) |  | 10.2 | 3.05 µM (inactive) | 
COc1cc(C2SC(=N)Nc3c2c(C)nn3C(=O)c2ccccc2O)cc(OC)c1OC (configuration not stated) | 5 µM (inactive) | > 10 µM (inactive) | 5.12 µM (inactive) | > 10 µM (inactive) |  | 1.59 µM (inactive) | 6.15 µM (inactive) | 3.57 µM (inactive) | 2.81 µM (inactive) | > 10 µM (inactive) | > 10 µM (inactive) |  | 4.42 µM (inactive) | 1.66 µM (inactive) | 6.76 µM (inactive) | > 10 µM (inactive) | 2.72 µM (inactive) | 4.31 |  | 9.35 µM (inactive)
Oc1ccc2ccccc2c1/C=N/Cc1c(O)ccc2ccccc12 | 26.1 µM (inactive) | 45.3 µM (inactive) | 41.4 µM (inactive) | 7.71 µM (inactive) | 42.2 µM (inactive) | 28.3 µM (inactive) | > 100 µM (inactive) | 69 µM (inactive) | 18.5 µM (inactive) | 48.2 µM (inactive) | 43.2 µM (inactive) | 6.53 µM (inactive) | 31.6 µM (inactive) | > 100 µM (inactive) | 29 µM (inactive) | 81.5 µM (inactive) | 45.1 µM (inactive) | 29.4 |  | 27.2 µM (inactive)
CC12CC(C/C1=N/O)C(C)(C)C2 (configuration not stated) | > 100 µM (inactive) | > 100 µM (inactive) | > 100 µM (inactive) | > 100 µM (inactive) | > 100 µM (inactive) | > 100 µM (inactive) | > 100 µM (inactive) | > 100 µM (inactive) | > 100 µM (inactive) | > 100 µM (inactive) | > 100 µM (inactive) | > 100 µM (inactive) | > 100 µM (inactive) | > 100 µM (inactive) | > 100 µM (inactive) | > 100 µM (inactive) | > 100 µM (inactive) |  | > 100 µM (inactive) | 
